Data from patent US20080293815A1, “HCA FOR IMPROVED HDL SERUM LIPIDS PROFILE” (Glykon Technologies Group, LLC, priority 2006, published 2008).
Several values for one entry are separate records, joined by “and”; a condition that tells them apart may be missing. Equal values may be shown once.

How the values were obtained:
[1] = system: male rats of Wistar strain; assay: Animal trial: serum total cholesterol, HDL and LDL in rats on cholesterol diet; assay type: in vivo, rat; settings: for total cholesterol reduction (lowering) in comparison to the starting condition: 2 weeks; for HDL, Average / LDL, Average / Total cholesterol, Average: group average; for HDL / LDL / Total cholesterol: individual rat
Protocol: (§1) During the adaptation period, health was monitored by weighing and observing the animals. […] After 10 days of cholesterol-containing feed, all animals were in a state of hypercholesterolemia. One group served as the control, whereas group II, III, and IV received 0.5%, 1%, and 2% of KHCA (produced via the method of Example 2), respectively, in addition to the cholesterol diet. The salt solutions were given orally in 2 ml water daily. Group I received 2 ml of distilled water per 200 g body weight; group II received 1.03 mg KHCA in 2 ml water per 200 body weight; group III 2.06 mg; and group IV 4.12 mg. These treatments were continued for 2 weeks.
The animals were fasted for 12 hours prior to blood withdrawal. Rats were weighed and the 3-4 ml blood was obtained by amputating 2-3 cm of the tail. The blood was collected, let stand at room temperature for 30 minutes, and then centrifuged for 10-15 minutes. The serum was separated and refrigerated at 4° C. until ready for cholesterol analysis. Cholesterol level of the serum was analyzed using diagnostic kit (Boehringer Mannheim). Total cholesterol, LDL, and HDL were determined through spectrophotometric instrument (Hitachi). These are protocols frequently used in clinical laboratories.
Student's T-test was used to evaluate whether there was a difference between the control and each of the treated groups by comparing the data before and after the treatment. One-way variance analysis was performed to see if there was a statistically significant difference among the groups.

[2] = Animal trial: body weight, feed and water consumption, feces; assay type: in vivo, rat; settings: for Body weight: group average
Protocol: as §1

rats = settings: physiologic doses; cited from earlier work
[3] = animal model, U.S. Pat. No. 6,221,901; cited from earlier work
[4] = 0.5% KHCA (1.03 mg/day oral, 2 weeks), End Day 24
[5] = 0.5% KHCA group, Hypercholesterolemia Day 10 (before treatment)
[6] = 0.5% KHCA group, Start (before diet and treatment)
[7] = 1.0% KHCA (2.06 mg/day oral, 2 weeks), End Day 24
[8] = 1.0% KHCA group, Hypercholesterolemia Day 10 (before treatment)
[9] = 1.0% KHCA group, Start (before diet and treatment)
[10] = 2.0% KHCA (4.12 mg/day oral, 2 weeks), End Day 24
[11] = 2.0% KHCA group, Hypercholesterolemia Day 10 (before treatment)
[12] = 2.0% KHCA group, Start (before diet and treatment)
[13] = 2 ml of 2 percent daily for two weeks
[14] = 2 ml of 2 percent daily, value before the two weeks treatment
[15] = KHCA 0.5% group, Hyper-cholesterolemia (Day 10), before treatment
[16] = KHCA 0.5% group, Start (before diet and treatment)
[17] = KHCA 0.5%, 2 weeks oral, End (Day 24)
[18] = KHCA 1.0% group, Hyper-cholesterolemia (Day 10), before treatment
[19] = KHCA 1.0% group, Start (before diet and treatment)
[20] = KHCA 1.0%, 2 weeks oral, End (Day 24)
[21] = KHCA 2.0% group, Hyper-cholesterolemia (Day 10), before treatment
[22] = KHCA 2.0% group, Start (before diet and treatment)
[23] = KHCA 2.0%, 2 weeks oral, End (Day 24)
[24] = KHCA administration versus control group

O=C([O-])CC(O)(C(=O)[O-])C(O)C(=O)[O-].[K+].[K+].[K+] (centres unmarked) [KHCA, Potassium HCA Salt]
total cholesterol reduction (lowering) in comparison to the starting condition ([1]; 0.5% K-HCA): 1.6 mg·dL | HDL, Average [1, 4]: 49.2 mg/dL | LDL, Average [1, 4]: 64.6 mg/dL | Total cholesterol, Average [1, 4]: 79.2 mg/dL | HDL [1, 4]: 40 mg/dL and 59 mg/dL and 43 mg/dL and 53 mg/dL and 51 mg/dL | LDL [1, 4]: 59 mg/dL and 77 mg/dL and 71 mg/dL and 60 mg/dL and 56 mg/dL | Total cholesterol [1, 4]: 82 mg/dL and 80 mg/dL and 76 mg/dL and 79 mg/dL (2×) | HDL, Average [1, 5]: 31 mg/dL | LDL, Average [1, 5]: 63.2 mg/dL | Total cholesterol, Average [1, 5]: 81 mg/dL | HDL [1, 5]: 27 mg/dL and 28 mg/dL and 39 mg/dL and 31 mg/dL and 30 mg/dL | LDL [1, 5]: 60 mg/dL (2×) and 70 mg/dL and 67 mg/dL and 59 mg/dL | Total cholesterol [1, 5]: 83 mg/dL and 84 mg/dL and 76 mg/dL and 80 mg/dL and 82 mg/dL | HDL, Average [1, 6]: 39 mg/dL | LDL, Average [1, 6]: 28.8 mg/dL | Total cholesterol, Average [1, 6]: 72.6 mg/dL | HDL [1, 6]: 37 mg/dL and 40 mg/dL and 41 mg/dL and 39 mg/dL and 38 mg/dL | LDL [1, 6]: 31 mg/dL and 28 mg/dL and 33 mg/dL and 27 mg/dL and 25 mg/dL | Total cholesterol [1, 6]: 74 mg/dL and 73 mg/dL and 69 mg/dL and 72 mg/dL and 75 mg/dL | HDL, Average [1, 7]: 53 mg/dL | LDL, Average [1, 7]: 58.2 mg/dL | Total cholesterol, Average [1, 7]: 71 mg/dL | HDL [1, 7]: 58 mg/dL and 60 mg/dL and 49 mg/dL and 46 mg/dL and 52 mg/dL | LDL [1, 7]: 69 mg/dL and 51 mg/dL and 48 mg/dL and 60 mg/dL and 63 mg/dL | Total cholesterol [1, 7]: 73 mg/dL and 71 mg/dL and 75 mg/dL and 69 mg/dL and 67 mg/dL | HDL, Average [1, 8]: 31.8 mg/dL | LDL, Average [1, 8]: 60.4 mg/dL | Total cholesterol, Average [1, 8]: 79.6 mg/dL | HDL [1, 8]: 28 mg/dL and 37 mg/dL (2×) and 30 mg/dL and 27 mg/dL | LDL [1, 8]: 67 mg/dL and 59 mg/dL and 54 mg/dL and 60 mg/dL and 62 mg/dL | Total cholesterol [1, 8]: 75 mg/dL and 82 mg/dL and 84 mg/dL and 80 mg/dL and 77 mg/dL | HDL, Average [1, 9]: 39 mg/dL | LDL, Average [1, 9]: 29 mg/dL | Total cholesterol, Average [1, 9]: 72.6 mg/dL | HDL [1, 9]: 36 mg/dL and 40 mg/dL and 43 mg/dL and 39 mg/dL and 37 mg/dL | LDL [1, 9]: 28 mg/dL and 29 mg/dL and 33 mg/dL and 30 mg/dL and 25 mg/dL | Total cholesterol [1, 9]: 69 mg/dL and 74 mg/dL and 72 mg/dL and 75 mg/dL and 73 mg/dL | total cholesterol reduction (lowering) in comparison to the starting condition ([1]; 1.0% KHCA): 2.06 mg·dL | change of HDL concentration in blood serum ([1]; 2.0% (4.12 mg) KHCA daily, control group decreased): increased | total cholesterol reduction (lowering) in comparison to the starting condition ([1]; 2.0% KHCA (4.12 mg daily)): 12.2 mg·dL | HDL, Average [1, 10]: 63.4 mg/dL | LDL, Average [1, 10]: 50 mg/dL | Total cholesterol, Average [1, 10]: 61.2 mg/dL | HDL [1, 10]: 64 mg/dL and 61 mg/dL and 67 mg/dL and 59 mg/dL and 66 mg/dL | LDL [1, 10]: 61 mg/dL and 46 mg/dL and 50 mg/dL and 44 mg/dL and 49 mg/dL | Total cholesterol [1, 10]: 59 mg/dL and 66 mg/dL and 52 mg/dL and 58 mg/dL and 71 mg/dL | HDL, Average [1, 11]: 34.6 mg/dL | LDL, Average [1, 11]: 63.2 mg/dL | Total cholesterol, Average [1, 11]: 82 mg/dL | HDL [1, 11]: 31 mg/dL and 37 mg/dL and 40 mg/dL and 33 mg/dL and 32 mg/dL | LDL [1, 11]: 69 mg/dL and 61 mg/dL and 59 mg/dL and 60 mg/dL and 67 mg/dL | Total cholesterol [1, 11]: 83 mg/dL and 85 mg/dL and 81 mg/dL and 79 mg/dL and 82 mg/dL | HDL, Average [1, 12]: 38.8 mg/dL | LDL, Average [1, 12]: 29.8 mg/dL | Total cholesterol, Average [1, 12]: 73.4 mg/dL | HDL [1, 12]: 38 mg/dL and 40 mg/dL and 41 mg/dL and 36 mg/dL and 39 mg/dL | LDL [1, 12]: 31 mg/dL and 29 mg/dL and 26 mg/dL and 33 mg/dL and 30 mg/dL | Total cholesterol [1, 12]: 75 mg/dL and 70 mg/dL and 72 mg/dL and 73 mg/dL and 77 mg/dL | HDL level, after treatment [1, 13]: 63 mg/dL | serum cholesterol LDL level, after treatment [1, 13]: 50 mg·dL | HDL level, before treatment [1, 14]: 35 mg/dL | serum cholesterol LDL level, before treatment [1, 14]: 63 mg/dL | LDL/HDL Ratio [1, 15]: 2.04 | Total Cholesterol/HDL [1, 15]: 2.61 | LDL/HDL Ratio [1, 16]: 0.74 | Total Cholesterol/HDL [1, 16]: 1.86 | LDL/HDL Ratio [1, 17]: 1.31 | Total Cholesterol/HDL [1, 17]: 1.61 | LDL/HDL Ratio [1, 18]: 1.9 | Total Cholesterol/HDL [1, 18]: 2.50 | LDL/HDL Ratio [1, 19]: 0.74 | Total Cholesterol/HDL [1, 19]: 1.86 | LDL/HDL Ratio [1, 20]: 1.1 | Total Cholesterol/HDL [1, 20]: 1.34 | LDL/HDL Ratio [1, 21]: 1.83 | Total Cholesterol/HDL [1, 21]: 2.36 | LDL/HDL Ratio [1, 22]: 0.77 | Total Cholesterol/HDL [1, 22]: 1.89 | LDL/HDL Ratio [1, 23]: 0.79 | Total Cholesterol/HDL [1, 23]: 0.97 | Body weight ([2]; 0.5% KHCA (1.03 mg/day oral), At Hypercholesterolemia, before treatment): 202.4 grams | Body weight ([2]; 0.5% KHCA (1.03 mg/day oral), End of Experiment, after 2 weeks treatment): 199.5 grams | Body weight ([2]; 0.5% KHCA (1.03 mg/day oral), Start of Experiment, before cholesterol diet and treatment): 162.8 grams | Body weight ([2]; 1.0% KHCA (2.06 mg/day oral), At Hypercholesterolemia, before treatment): 195.0 grams | Body weight ([2]; 1.0% KHCA (2.06 mg/day oral), End of Experiment, after 2 weeks treatment): 193.2 grams | Body weight ([2]; 1.0% KHCA (2.06 mg/day oral), Start of Experiment, before cholesterol diet and treatment): 157.7 grams | Body weight ([2]; 2.0% KHCA (4.12 mg/day oral), At Hypercholesterolemia, before treatment): 192.7 grams | Body weight ([2]; 2.0% KHCA (4.12 mg/day oral), End of Experiment, after 2 weeks treatment): 183.7 grams | Body weight ([2]; 2.0% KHCA (4.12 mg/day oral), Start of Experiment, before cholesterol diet and treatment): 166.9 grams | effect on body weight [2, 13]: reduced body weight | feces consistency [2, 24]: softer | feed consumption [2, 24]: lower feed consumption | benefits with regard to insulin metabolism and blood pressure regulation (rats): significant results

O=C([O-])CC(O)(C(=O)[O-])C(O)C(=O)[O-].[K+].[Mg+2] (centres unmarked) [potassium-magnesium HCA, Potassium-Magnesium Hydroxycitrate Salt]
benefits with regard to insulin metabolism and blood pressure regulation (rats): significant results

Magnesium HCA
increase in HDL [3]: 8.5%
